Laboratory results from the supplement of paper PMC8967900.

How the values were obtained:
Assay in all cases: selective drug sensitivity score (sDSS, relative to normal bone marrow) (sDSS (score)); higher = more potent and effective on the cell line relative to normal bone marrow cells
Conditions in all cases: 72 h
CCRF-HSB2 = system: CCRF-HSB2
MOLT-16 = system: MOLT-16
MHH-CALL-2 = system: MHH-CALL-2
COG-LL-317 = system: COG-LL-317
NALM-6 = system: NALM-6
KASUMI-2 = system: KASUMI-2
COG-LL-394h = system: COG-LL-394h
PEER = system: PEER
RCH-ACV = system: RCH-ACV
JURKAT = system: JURKAT
697 = system: 697
KARPAS-45 = system: KARPAS-45
SEM cells = system: SEM cells
HAL-01 = system: HAL-01
SUP-B15 = system: SUP-B15
MHH-CALL-4 = system: MHH-CALL-4
ALL-SIL = system: ALL-SIL
ALL-PO = system: ALL-PO
COG-LL-332h = system: COG-LL-332h
TANOUE = system: TANOUE
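Further: ALL cell lines in 384-well plates, five doses spanning 10,000-fold, each plate scaled between vehicle and 100 µmol/L benzalkonium chloride controls, sDSS an adapted area-under-curve metric.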

Compound	selective drug sensitivity score (CCRF-HSB2)	selective drug sensitivity score (MOLT-16)	selective drug sensitivity score (MHH-CALL-2)	selective drug sensitivity score (COG-LL-317)	selective drug sensitivity score (NALM-6)	selective drug sensitivity score (KASUMI-2)	selective drug sensitivity score (COG-LL-394h)	selective drug sensitivity score (PEER)	selective drug sensitivity score (RCH-ACV)	selective drug sensitivity score (JURKAT)	selective drug sensitivity score 697	selective drug sensitivity score (KARPAS-45)	selective drug sensitivity score (SEM cells)	selective drug sensitivity score (HAL-01)	selective drug sensitivity score (SUP-B15)	selective drug sensitivity score (MHH-CALL-4)	selective drug sensitivity score (ALL-SIL)	selective drug sensitivity score (ALL-PO)	selective drug sensitivity score (COG-LL-332h)	selective drug sensitivity score (TANOUE)
CS(=O)(=O)c1ccc(-c2cnc(N)c(C(=O)Nc3ccccc3)n2)cc1 [VE-821] (top concentration 10000 nM)	4.44	7.94	7.84	12.7	-0.66	-0.66	-0.66	0.54	7.94	1.64	-0.66	1.54	2.44	4.54	6.94	-0.66	4.94	2.64	4.74	0.64
CC[C@@H]1C(=O)N(C)c2cnc(Nc3ccc(C(=O)N[C@H]4CC[C@H](N5CCN(CC6CC6)CC5)CC4)cc3OC)nc2N1C(C)C [Volasertib] (top concentration 1000 nM)	12.4	12.7	10.6	16.7	11.9	5.7	7.7	18.7	13.9	11.7	12.1	19	21.4	5.8	19.2	0.9	12.7	16.1	12	-7
CC(C)NC[C@@H](C(=O)N1CCN(c2ncnc3c2[C@H](C)C[C@H]3O)CC1)c1ccc(Cl)cc1 [Ipatasertib] (top concentration 10000 nM)	0.3	10.9	4.7	11	6.2	7.9	-0.3	-1.6	12	7.1	2.9	5.2	3.3	1.8	0.8	4.5	2.9	6.7	5.8	-1.8
CNC(=O)c1ccccc1Nc1cc(Nc2ccc(N3CCOCC3)cc2OC)ncc1C(F)(F)F [VS-4718] (top concentration 10000 nM)	3.5	6.1	8.9	-0.8	0.4	-5	-0.4	3.6	0.8	1.1	0.7	7.1	7.9	8.7	-3	6.4	4.3	14	-0.3	-5
CC(=O)Nc1ccc(C(=O)Nc2ccccc2N)cc1 [Tacedinaline] (top concentration 1000 nM)	2.98	-0.02	7.68	-0.02	-0.02	-0.02	-0.02	0.68	0.48	0.68	1.88	2.08	4.08	9.18	4.58	9.18	6.08	-0.02	-0.02	-0.02
O=C(O)c1ccc(-c2c[nH]c3ncc(-c4ccccc4)cc23)cc1C1CCCC1 (top concentration 10000 nM)	3.16	3.66	11.7	2.36	-1.44	-1.44	-1.44	2.56	5.76	0.16	0.96	4.36	7.56	4.26	-1.44	-1.44	4.26	5.86	2.86	-1.44
CNC(=O)c1cc(Oc2ccc(NC(=O)Nc3ccc(Cl)c(C(F)(F)F)c3)c(F)c2)ccn1 [Regorafenib] (top concentration 10000 nM)	6.14	3.34	1.64	2.54	4.04	10	5.94	7.64	10.9	4.04	7.94	3.44	10	2.04	9.14	2.74	10	7.14	6.74	4.44
S=C(NCc1ccc2c(c1)OCO2)N1CCN(c2ncnc3c2oc2ccccc23)CC1 [Amuvatinib] (top concentration 10000 nM)	3.96	8.36	3.66	0.96	3.86	10.8	7.36	9.36	9.26	11.1	7.86	5.06	2.26	2.96	5.46	2.16	6.66	1.16	2.96	6.16
NC(=O)c1cccc2cn(-c3ccc(C4CCCNC4)cc3)nc12 (stereo not given) [Niraparib] (top concentration 10000 nM)	5.78	4.78	3.78	7.88	1.18	4.28	-2.02	-1.02	6.48	0.38	12.9	-0.62	2.98	3.18	17.2	4.58	2.88	6.08	3.88	-3.32
CN(C)Cc1ccc(S(=O)(=O)n2ccc(/C=C/C(=O)NO)c2)cc1 [Resminostat] (top concentration 10000 nM)	2.24	4.54	8.14	5.14	1.34	11.7	2.04	8.24	12.2	1.34	7.74	8.34	8.64	1.84	9.74	7.04	6.64	6.34	1.34	-4.16
COc1ccc(C[C@H](NC(=O)[C@H](C)NC(=O)CN2CCOCC2)C(=O)N[C@@H](Cc2ccccc2)C(=O)[C@@]2(C)CO2)cc1 [ONX-0914] (top concentration 10000 nM)	9.9	2.5	0.5	4.7	-1.7	0.6	6.2	7.7	-4.4	-4.4	-5	1.8	7.2	-9.3	11.5	2.9	3.8	-3.9	2.2	-4.2
Cc1ccc(C(=O)Nc2ccc(CN3CCN(C)CC3)c(C(F)(F)F)c2)cc1C#Cc1cnc2cccnn12 [Ponatinib] (top concentration 1000 nM)	34.4	6.62	5.92	-1.98	0.82	-1.78	1.12	18.6	14.8	1.42	6.62	5.02	19.4	8.42	31.8	4.72	41.7	14.1	17.6	-3.78
Cc1nn(C)c(COc2ccc(N3CCN(S(=O)(=O)N(C)C)CC3)cc2)c1-c1cccc2c(CCCOc3cccc4ccccc34)c(C(=O)O)n(CCN3CCOCC3)c12 (top concentration 50000 nM)	5.36	12.6	7.86	2.16	4.26	-0.74	4.56	10.2	4.66	5.86	4.36	8.16	4.96	2.46	8.16	5.06	7.26	8.86	4.16	2.56
Cc1c(-c2ccc(N3CCc4cccc(C(=O)Nc5nc6ccccc6s5)c4C3)nc2C(=O)O)cnn1CC12CC3CC(CC(C3)C1)C2 (top concentration 1000 nM)	10.2	0.54	-1.26	25.9	5.84	1.04	7.94	19.3	-1.76	7.34	-1.76	23.8	-1.66	-1.86	9.34	2.24	25.1	-1.86	9.14	-2.26
COc1cc2ncnc(Oc3cccc(NC(=O)Nc4cc(C(C)(C)C(F)(F)F)on4)c3)c2cc1OC (top concentration 10000 nM)	23.2	2.5	4.2	0	0	5.2	3.9	17.8	13.9	0	10.4	3.2	14.5	3.4	28.4	3.4	41.3	11.5	18.4	0
Cc1ccc(Nc2nccc(N(C)c3ccc4c(C)n(C)nc4c3)n2)cc1S(N)(=O)=O [Pazopanib] (top concentration 10000 nM)	4.34	1.94	6.24	-1.26	-1.26	3.44	-0.76	2.84	10.5	2.84	4.94	1.74	4.54	-0.16	-0.96	-1.26	2.64	-1.06	0.14	-1.26
Cc1cccc(CC(=O)N2CCc3c2ccc(-c2cn(C)c4ncnc(N)c24)c3F)n1 (top concentration 2500 nM)	2.82	5.62	5.02	-0.68	4.32	-0.68	5.42	7.02	7.02	8.22	3.42	1.32	0.32	2.92	7.22	4.22	0.32	0.22	0.32	2.52
CCOC(=O)CCNc1cc(N2CCc3ccccc3CC2)nc(-c2ccccn2)n1 [GSK-J4] (top concentration 100000 nM)	-7.18	-5.48	-7.18	-2.78	-9.98	-10.8	-9.68	-5.48	-8.58	-5.98	-8.08	-7.28	-8.58	7.72	-8.48	-8.98	-4.58	-7.18	-7.08	-11.6
